Among the data in ChEMBL document CHEMBL1133133, “Difluoroketones as inhibitors of matrix metalloprotease-13” (Bioorg Med Chem Lett, 2000) are IC50 values, retold here.

For the assay, the target named is Collagenase 3 (Homo sapiens, UniProt P45452). As to the kind of experiment: Inhibition of Matrix metalloprotease-13.

As to `O=C(C(CCc1ccccc1)CC(=O)C(F)(F)c1ccc(Cc2ccccc2)cc1)N1CCCCC1` (centres undefined), the midpoint of inhibition, the IC50, lay at 6.1 µM. With `CNC(=O)C(NC(=O)C(CCc1ccccc1)CC(=O)C(F)(F)c1ccc(Cc2ccccc2)cc1)C(C)(C)C` (centres undefined) the figure was 5.1 µM. With `CNC(=O)C(NC(=O)C(CCc1ccccc1)CC(O)C(F)(F)c1ccc(Cc2ccccc2)cc1)C(C)(C)C` (centres undefined) the figure was > 30 µM; with `CNC(=O)[C@@H](NC(=O)C(CCc1ccccc1)CP(=O)(O)Cc1ccc(Cc2ccccc2)cc1)C(C)(C)C` (some centres undefined), 0.014 µM; with `C=CCCC(=O)C(F)(F)c1ccc(Cc2ccccc2)cc1`, > 30 µM. With `O=C(CCCCc1ccccc1)C(F)(F)c1ccc(Cc2ccccc2)cc1` the figure was > 30 µM; with `C=CC(CCc1ccccc1)CC(O)C(F)(F)c1ccc(Cc2ccccc2)cc1` (centres undefined), 27 µM; with `CNC(=O)C(NC(=O)CCC(=O)C(F)(F)c1ccc(Cc2ccccc2)cc1)C(C)(C)C` (centres undefined), 12 µM. `C=CC(CCc1ccccc1)CC(=O)C(F)(F)c1ccc(Cc2ccccc2)cc1` (centres undefined) registered an IC50 of 0.29 µM.
